Data from PubChem BioAssay (NCI).
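Cells were grown in 96-well plates and exposed to each compound for 48 hours at five concentrations; endpoints were interpolated linearly between bracketing concentrations, or set to the highest concentration if not reached. The concentration for full growth arrest is given as TGI.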

Tested on: P388/ADR leukemia
Assay: NCI tumour cell line growth inhibition, 48 h

Compound `CCCCS(=N)(=O)CC[C@H](N)C(=O)O` (stereo partly specified) has a TGI greater than 5 mM.
